Source: patent US9156801B2, “2-substituted oleanolic acid derivative, method preparing for same, and application thereof” (HANGZHOU BENSHENG PHARMACEUTICAL CO., LTD., priority 2011, dated 2015)
In brackets after ≈: the same amount, converted by molar mass.

Tests used:
Becap37 cell line = experiment: solid tumor cell growth inhibition, MTT; type: cell-based; conditions: Homo sapiens
Summary of the method: (§1)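 MTT read-out of relative living-cell number after a 72 h compound exposure at 37° C, 5% CO2. Cells had been plated at 4000 per well in DMEM high glucose containing 10% fetal bovine serum and allowed 24 h before dosing. Inhibition is referenced to untreated wells set at 0%.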

A549 cell line = experiment: solid tumor cell growth inhibition, MTT; type: cell-based; conditions: Homo sapiens
Summary of the method: as §1

MGC 803 cell line = experiment: solid tumor cell growth inhibition, MTT; type: cell-based; conditions: Homo sapiens
Summary of the method: as §1

Hela cell line = experiment: solid tumor cell growth inhibition, MTT; type: cell-based; conditions: Homo sapiens, 72 h
Summary of the method: as §1

PANC-1 cell line = experiment: solid tumor cell growth inhibition, MTT; type: cell-based; conditions: Homo sapiens
Summary of the method: as §1

RKO cell line = experiment: solid tumor cell growth inhibition, MTT; type: cell-based; conditions: Homo sapiens, 72 h
Summary of the method: as §1

CaES-17 cell line = experiment: solid tumor cell growth inhibition, MTT; type: cell-based; conditions: Homo sapiens, CaEs17
Summary of the method: as §1

CNE cell line = experiment: solid tumor cell growth inhibition, MTT; type: cell-based; conditions: Homo sapiens, 72 h
Summary of the method: as §1

PC-3 cell line = experiment: solid tumor cell growth inhibition, MTT; type: cell-based; conditions: Homo sapiens
Summary of the method: as §1

Hep-2 cell line = experiment: solid tumor cell growth inhibition, MTT; type: cell-based; conditions: Homo sapiens
Summary of the method: as §1

U87 MG cell line = experiment: solid tumor cell growth inhibition, MTT; type: cell-based; conditions: Homo sapiens, U-87 MG, 72 h
Summary of the method: as §1

MG-63 cell line = experiment: solid tumor cell growth inhibition, MTT; type: cell-based; conditions: Homo sapiens
Summary of the method: as §1

SK-OV-3 cell line = experiment: solid tumor cell growth inhibition, MTT; type: cell-based; conditions: Homo sapiens
Summary of the method: as §1

RPMI8226 cell line = experiment: multiple myeloma cell growth inhibition, MTT; type: cell-based; conditions: Homo sapiens, RPMI-8226
Summary of the method: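 RPMI8226 cells (6000 per well) in RPMI 1640 with 10% FBS were exposed to several concentrations of compound for 72 h at 37° C and 5% CO2. Viable cells were quantified by MTT, with inhibition set to 0% in untreated controls.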

NB4 cell line = experiment: leukemia cell growth inhibition, MTT; type: cell-based; conditions: Homo sapiens, NB-4
Summary of the method: (§2)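 Leukemia cells (6000 per well) are grown in 1640 medium containing 10% fetal bovine serum, treated with several concentrations of test derivative, and incubated 72 hours at 37° C in 5% CO2. The relative viable count is then measured by MTT.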

Kasumi-1 cell line = experiment: leukemia cell growth inhibition, MTT; type: cell-based; conditions: Homo sapiens
Summary of the method: as §2

Jurkat cell line = experiment: leukemia cell growth inhibition, MTT; type: cell-based; conditions: Homo sapiens, 72 h
Summary of the method: as §2

K562/adr cell line = experiment: leukemia cell growth inhibition, MTT; type: cell-based; conditions: Homo sapiens, 72 h
Summary of the method: as §2

H9 cell line = experiment: leukemia cell growth inhibition, MTT; type: cell-based; conditions: Homo sapiens
Summary of the method: as §2

Hep G2 cell line = experiment: solid tumor cell growth inhibition, MTT; type: cell-based, human; conditions: Homo sapiens
Summary of the method: as §1

[1] = 16 μg/mL compound, read-out: IR (cell proliferation inhibition rate)

IC50 (Becap37 cell line; Becap37, 72 h): > 16 µg/mL
IC50 (A549 cell line; A549, 72 h): > 16 µg/mL
IC50 (MGC 803 cell line; MGC 803, 72 h): > 16 µg/mL
IC50 (Hela cell line; HeLa): > 16 µg/mL
IC50 (PANC-1 cell line; PANC-1, 72 h): > 16 µg/mL
IC50 (RKO cell line): > 16 µg/mL
IC50 (CaES-17 cell line; CaES-17, 72 h): > 16 µg/mL
IC50 (CNE cell line): > 16 µg/mL
IC50 (PC-3 cell line; PC-3, 72 h): > 16 µg/mL
IC50 (Hep-2 cell line; HEp-2, 72 h): > 16 µg/mL
IC50 (U87 MG cell line): > 16 µg/mL
IC50 (MG-63 cell line; MG-63, 72 h): > 16 µg/mL
IC50 (SK-OV-3 cell line; SK-OV-3, 72 h): > 16 µg/mL
IC50 (RPMI8226 cell line; RPMI8226, 72 h): 6.21 µg/mL (≈ 10.7 µM)
IC50 (NB4 cell line; NB4, 72 h): 10.8 µg/mL (≈ 18.5 µM)
IC50 (Kasumi-1 cell line; Kasumi-1, 72 h): > 16 µg/mL
IC50 (Jurkat cell line): > 16 µg/mL
IC50 (K562/adr cell line; K562/Adr): 6.8 µg/mL (≈ 11.7 µM)
IC50 (H9 cell line; H9, 72 h): > 16 µg/mL
IC50 (Hep G2 cell line; HepG2, Hep G2, 72 h): > 16 µg/mL
Compound: CN(C)CCCNC(=O)C1C[C@@]2(C)C(CC[C@]3(C)C2CC=C2C4CC(C)(C)CC[C@]4(C(=O)O)CC[C@]23C)C(C)(C)C1=O (stereo partly shown) [BS-OA-109]
inhibition at 16 µg/mL (Becap37 cell line; Becap37, 16 μg/mL compound, 72 h, read-out: IR (cell proliferation inhibition rate)): 19.7%
inhibition at 16 µg/mL (A549 cell line; A549, 16 μg/mL compound, 72 h, read-out: IR (cell proliferation inhibition rate)): 7.5%
inhibition at 16 µg/mL (MGC 803 cell line; MGC 803, 16 μg/mL compound, 72 h, read-out: IR (cell proliferation inhibition rate)): 4.9%
inhibition at 16 µg/mL (Hela cell line; Hela, 16 μg/mL compound, read-out: IR (cell proliferation inhibition rate)): 23.6%
inhibition at 16 µg/mL (PANC-1 cell line; PANC-1, 16 μg/mL compound, 72 h, read-out: IR (cell proliferation inhibition rate)): 12.9%
inhibition at 16 µg/mL (RKO cell line; [1]): -4.9%
inhibition at 16 µg/mL (CaES-17 cell line; CaES-17, 16 μg/mL compound, 72 h, read-out: IR (cell proliferation inhibition rate)): 4.1%
inhibition at 16 µg/mL (CNE cell line; [1]): 36.5%
inhibition at 16 µg/mL (PC-3 cell line; PC-3, 16 μg/mL compound, 72 h, read-out: IR (cell proliferation inhibition rate)): -5.5%
inhibition at 16 µg/mL (Hep-2 cell line; Hep-2, 16 μg/mL compound, 72 h, read-out: IR (cell proliferation inhibition rate)): 11.3%
inhibition at 16 µg/mL (U87 MG cell line; [1]): -3.8%
inhibition at 16 µg/mL (MG-63 cell line; MG-63, 16 μg/mL compound, 72 h, read-out: IR (cell proliferation inhibition rate)): 18.9%
inhibition at 16 µg/mL (SK-OV-3 cell line; SK-OV-3, 16 μg/mL compound, 72 h, read-out: IR (cell proliferation inhibition rate)): -13.5%
inhibition at 16 µg/mL (RPMI8226 cell line; RPMI8226, 16 μg/mL compound, 72 h, read-out: IR (cell proliferation inhibition rate)): 96%
inhibition at 16 µg/mL (NB4 cell line; NB4, 16 μg/mL compound, 72 h, read-out: IR (cell proliferation inhibition rate)): 76.6%
inhibition at 16 µg/mL (Kasumi-1 cell line; Kasumi-1, 16 μg/mL compound, 72 h, read-out: IR (cell proliferation inhibition rate)): 36.2%
inhibition at 16 µg/mL (Jurkat cell line; [1]): 32.3%
inhibition at 16 µg/mL (K562/adr cell line; K562/adr, 16 μg/mL compound, read-out: IR (cell proliferation inhibition rate)): 86.2%
inhibition at 16 µg/mL (H9 cell line; H9, 16 μg/mL compound, 72 h, read-out: IR (cell proliferation inhibition rate)): 39.4%
inhibition at 16 µg/mL (Hep G2 cell line; HepG2, 72 h, Hep G2, 16 μg/mL compound, 72 h, read-out: IR (cell proliferation inhibition rate)): 32.1%
